Laboratory results reported in patent publication US12102608B2, “Composition of acylethanolamides from olive oil fatty acids” (EPITECH GROUP S.P.A., priority 2021, dated 2024).

Experiments:
Type in all cases: in vivo, rat
[1] = tested on: paw edema of animals injected with CAR; assay: Carrageenan-induced paw edema, plethysmometer; details: per os 30 min before CAR in 2% CMC; PEA 2 mg/kg, OEA 6 mg/kg, complex/silica 20 mg/kg; 1 h to 6 h after CAR; FIG. 1
Procedure: The study was conducted on male Sprague-Dawley rats (200-235 g; Harlan, Nossan, Italy) fed ad libitum and housed in cages with a controlled sleep/wake cycle. Before the start of the experimentation, the animals were subjected to an acclimatization period of 1 week considering all the experimental procedures and protocols, compliant with the principles of the care of laboratory animals approved by the Italian Ministry of Health and respecting the guidelines of the European Economic Community. The animals were subjected to a single injection of 100 μl of saline solution containing 1% Carrageenan (CAR) in one of the two hind legs. Paw edema was measured with a plethysmometer (Ugo Basile, Comerio, Varese, Italy) (Salvemini D et al. Nitric oxide: A key mediator in the early and late phase of carrageenan-induced rat paw inflammation. Br. J. Pharmacol. 1996; 118: 829-838) before the CAR injection and after the inoculation thereof every hour for 6 h. The hyperalgesic responses to heat were assessed using the plantar test with a cut-off latency of 20 sec to avoid tissue damage. […] The suspension latency period of the injected paw was determined by an electronic circuit and the results were expressed in seconds. Edema was expressed as increased paw volume (mL) after the CAR injection with respect to the pre-injection value for all the animals. […]

[2] = tested on: CAR-induced thermal hyperalgesia; assay: Plantar test, thermal hyperalgesia after CAR injection; details: per os 30 min before CAR in 2% CMC; PEA 2 mg/kg, OEA 6 mg/kg, complex/silica 20 mg/kg; 1 h to 6 h after CAR, vs. vehicle; FIG. 2
Procedure: The study was conducted on male Sprague-Dawley rats (200-235 g; Harlan, Nossan, Italy) fed ad libitum and housed in cages with a controlled sleep/wake cycle. Before the start of the experimentation, the animals were subjected to an acclimatization period of 1 week considering all the experimental procedures and protocols, compliant with the principles of the care of laboratory animals approved by the Italian Ministry of Health and respecting the guidelines of the European Economic Community. The animals were subjected to a single injection of 100 μl of saline solution containing 1% Carrageenan (CAR) in one of the two hind legs. Paw edema was measured with a plethysmometer (Ugo Basile, Comerio, Varese, Italy) (Salvemini D et al. Nitric oxide: A key mediator in the early and late phase of carrageenan-induced rat paw inflammation. Br. J. Pharmacol. 1996; 118: 829-838) before the CAR injection and after the inoculation thereof every hour for 6 h. The hyperalgesic responses to heat were assessed using the plantar test with a cut-off latency of 20 sec to avoid tissue damage. The rats were individually housed in plexiglass compartments to acclimatize them before subjecting them to thermal stimulation. The suspension latency period of the injected paw was determined by an electronic circuit and the results were expressed in seconds. […]

[3] = tested on: tissue damage of the paw of animals subjected to CAR injection; assay: Histology of paw tissue (Hematoxylin/Eosin), tissue damage score; details: per os 30 min before CAR; PEA 2 mg/kg, OEA 6 mg/kg, complex/silica 20 mg/kg; tissue taken 6 h after CAR; FIG. 3
Procedure: (§1) The study was conducted on male Sprague-Dawley rats (200-235 g; Harlan, Nossan, Italy) fed ad libitum and housed in cages with a controlled sleep/wake cycle. Before the start of the experimentation, the animals were subjected to an acclimatization period of 1 week considering all the experimental procedures and protocols, compliant with the principles of the care of laboratory animals approved by the Italian Ministry of Health and respecting the guidelines of the European Economic Community. […]

[4] = tested on: mast cells in the paw tissue; assay: Toluidine Blue staining of mast cells in paw tissue; details: per os 30 min before CAR; PEA 2 mg/kg, OEA 6 mg/kg, complex/silica 20 mg/kg; 6 h after CAR; PEA and OEA compared with sham; FIG. 4
Procedure: as §1

SMILES	edema (increased paw volume) caused by CAR [1]	CAR-induced thermal hyperalgesia (plantar test latency) [2]	paw tissue damage (E/E histological score) [3]	number of mast cells / mast cell infiltrate in paw tissue [4]
CCCCCCCCCCCCCCCC(=O)NCCO [PEA, palmitoylethanolamide]	No significant reduction in the edema	No analgesic effect	not capable of protecting the paw tissues	significant increase in the number of mast cells
CCCCCCCC/C=C\CCCCCCCC(=O)NCCO [OEA, oleoylethanolamide]	No significant reduction in the edema	No analgesic effect	not capable of protecting the paw tissues	significant increase in the number of mast cells
